# Reference: PMC8696196 (RSC Advances, 2021)
# Molecular target: H3N2 E119V (A/Moscow/10/99 background, E119V mutation in the neuraminidase gene)
# Type: cell-based, influenza A virus
# Conditions: read-out: EC50 H3N2 E119V
row,SMILES,EC50
1,"CCC(CC)O[C@@H]1C=C(C(=O)O)C[C@H](N)[C@H]1NC(C)=O [OSC, oseltamivir carboxylate, reference compound]",> 100 µM
2,"CCC(CC)O[C@@H]1C=C(C(=O)O)C[C@H](n2nncc2-c2cccc(N)c2)[C@H]1NC(C)=O [Compound 2j, (3R,4R,5S)-4-Acetamido-5-[5-(3-aminophenyl)-1H-1,2,3-triazol-1-yl]-3-(pentan-3-yloxy)cyclohex-1-ene-1-carboxylic acid]",> 100 µM
